Source: paper PMC11440508, “Dually Labeled Neurotensin NTS1R Ligands for Probing Radiochemical and Fluorescence-Based Binding Assays” (Journal of Medicinal Chemistry, 2024)
Values joined by “and” are separate entries in the source; they are usually repeats but may differ in a detail not shown here. Equal entries are not always repeated.

How the values were obtained:
[1] = target: NTS1R (Homo sapiens, UniProt P30989); assay: Fluorescence anisotropy (FA) association and dissociation kinetics at hNTS1R-displaying BBVs; format: binding; parameters: NlucC (C-terminal fragment of nanoluciferase, 11 amino acids) (C); made in house; host or cells: Sf9 insect cells, baculovirus (pIMACE-CMVintP10-hNTS1R-Nluc, DH10MultiBac); budded baculovirus particles; conditions: NTS1R-BBV, 27 °C; for kon: from model fit, read-out: kon [min^–1 nM^–1] (converted); for koff: read-out: koff [min^–1] (converted)
Sequence of NTS1R (P30989 whole entry, the tested form may be a part): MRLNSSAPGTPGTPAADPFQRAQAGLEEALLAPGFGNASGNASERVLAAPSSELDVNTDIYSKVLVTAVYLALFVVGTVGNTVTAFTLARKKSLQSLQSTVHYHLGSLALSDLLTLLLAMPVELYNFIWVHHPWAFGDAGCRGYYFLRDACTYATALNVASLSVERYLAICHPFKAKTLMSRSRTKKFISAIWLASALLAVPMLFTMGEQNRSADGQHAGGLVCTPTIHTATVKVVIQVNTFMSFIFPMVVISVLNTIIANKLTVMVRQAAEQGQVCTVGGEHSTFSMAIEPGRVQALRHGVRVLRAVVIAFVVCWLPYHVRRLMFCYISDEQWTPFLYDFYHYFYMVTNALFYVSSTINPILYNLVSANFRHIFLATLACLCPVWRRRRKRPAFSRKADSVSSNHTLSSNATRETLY
Method: FA-based NTS1R binding studies with 13 and 18 were performed at hNTS1R displaying budded baculovirus particles (termed BBVs below), which were obtained from Sf9 insect cells following the procedure reported for the preparation of neuropeptide Y Y1R displaying BBVs.[61] The obtained viruses were collected by centrifugation at 1600g for 10 min, and the virus titer was determined with an image-based cell-size estimation assay as described elsewhere.[62] The viruses were amplified using a multiplicity of infection (MOI) between 0.01 and 0.1 until a high-titer baculovirus stock (virus concentration of at least 1.0 × 10^8 infectious viral particles/mL) was acquired. To produce BBV preparations with a high receptor density, Sf9 cells with a density of 1.9 × 10^6 cells/mL were infected with an MOI of 3 and the BBVs were collected by centrifugation 63 h after the infection, when the cell viability was <30%. The BBVs were concentrated 40-fold by centrifugation at 48,000g at 4 °C for 40 min, washed with ice-cold DPBS (without supplements), resuspended, and homogenized using a 0.3 mm diameter needle (Sterican, B. Braun, Melsungen, Germany). Aliquots of the BBV preparations were stored at −90 °C until use.
FA measurements were performed with a Synergy NEO multimode plate reader (BioTek, Winooski, VT) and black, half area, flat bottom polystyrene nonbinding surface (NBS) 96-well plates (product no. 3993; Corning, Corning, NY). Polarizing excitation (530 ± 15 nm) and dual emission (590 ± 17.5 nm) filters with a dichroic mirror were used, allowing the simultaneous detection of parallelly and perpendicularly polarized fluorescence emission after polarizing beam splitter. All measurements were performed at 27 °C. For all experiments, DPBS2 was used as binding buffer. […]
25 μL of a 4-fold concentrated (compared to the final concentration) solution of 13 or 18 (final concentrations were 0.3 and 1 nM for both ligands) and 25 μL of DPBS2 were premixed in the 96-well plate followed by the addition of 50 μL of BBV suspension (used in six different concentrations; each was combined with the two ligand concentrations) to start the association. […] This enabled shorter time intervals between the read cycles (the measuring time for one cycle, comprising 4 wells, was 6 s; 100 read cycles were carried out). […] Immediately after the addition of SR142948, FA signals were measured for 10 min (within this time period, the dissociation was complete and a plateau was reached, respectively). Equilibrium binding was analyzed using the FA signals at 10 min. Fluorescence intensities were processed as previously reported[61] using the in-house developed software Aparecium 2.0.20 (http://www.gpcr.ut.ee/software.html).[63] […]

[2] = Recovery from human plasma/PBS 1:2 v/v; format: in vitro ADME; parameters: recovery compd. (%): dose or concentration left out as unconfirmed; conditions: for recovery compd. (%): human plasma/PBS 1:2 v/v
Method: The proteolytic stabilities of 13 and 18 were investigated in human blood plasma/PBS (136.9 mM NaCl, 2.68 mM KCl, 5.62 mM Na2HPO4, 1.09 mM NaH2PO4, and 1.47 mM KH2PO4, pH 7.4) 1:2 v/v according to a described procedure[38] with the following modifications: 5 mM stock solutions in EtOH/10 mM aqueous HCl 1:1 v/v were used for the addition of the peptides to plasma/PBS 1:2 v/v. As the RP-HPLC purity of 1-methyl-D-Trp, used as internal standard (IS), was <95%, the compound was purified by preparative HPLC to give a purity of >99%. […] Samples were analyzed using the same RP-HPLC system and conditions as described under Analytical HPLC with the following gradient: 0–6 min: acetonitrile/0.04% aqueous TFA 10:90–21:79, 6–12 min: 21:79–40:60, 12–13 min: 40:60–95:5, 13–16 min: 95:5 (isocratic). Data analysis was based on UV detection at 220 nm. Reference samples, representing 100% recovery, were prepared in quadruplicate. Recovery ratios were obtained by dividing the recovery of the peptide by the recovery of IS for each individual sample (n = 4). The obtained recoveries and the recovery ratios are summarized in Table S2, Supporting Information.

Row | Structure (SMILES) | kon [1] [M⁻¹ s⁻¹] | koff [1] [s⁻¹] | mean recovery ratio ± SEM ([2]; four independent experiments) | recovery compd. (%) ([2]; individual experiments) | ratio of peptide recovery over recovery of internal standard ([2]; individual experiments, internal standard 1-methyl-D-tryptophan)
1 | CCC(=O)NCCCCNC(=O)NC(=N)NCCC[C@H](NC(=O)[C@@H]1CCCN1C(=O)[C@@H](NC(=O)CCc1cn(CCCNC(=O)CCC#Cc2ccc3c(c2)C(C)(C)C2=C4C=C5C6=[N+](CCC5OC4CCN23)c2ccc(S(=O)(=O)[O-])cc2C6(C)C)nn1)C1CCNCC1)C(=O)N[C@@H](CCCNC(=N)N)C(=O)N1CCC[C@H]1C(=O)N[C@H](C(=O)N[C@H](C(=O)N[C@@H](CC(C)C)C(=O)O)[C@@H](C)CC)C(C)(C)c1ccc(O)cc1 (stereo partly drawn) [Compound 18, N^α-(3-(N-(1-(8-Sulfonato-5,5,27,27-tetramethyl-16-oxa-20-aza-12-azoniaheptacyclo[15.11.0.03,15.04,12.06,11.020,28.021,26]octacosa-1(28),2,4(12),6(11),7,9,21(26),22,24-nonaen-24-yl)-5-oxopentyn-5-yl)-1-aminoprop-3-yl-1H-1,2,3-triazol-4-yl)propanoyl)-2-(piperidin-4-yl)-Gly-Pro-N^ω-[(4-(N-propanoyl)aminobutyl)aminocarbonyl]Arg-Arg-Pro-β,β-dimethyl-L-Tyr-Ile-Leu Tris(hydrotrifluoroacetate)] | 2.33e+07 | 0.00933 | 0.99 ± 0.02 | 98% and 72% and 65% and 70% | 1.01 (2×) and 1.03 and 0.91
2 | CCC(=O)NCCCCNC(=O)N=C(N)NCCC[C@H](NC(=O)[C@@H]1CCCN1C(=O)[C@@H](NC(=O)CCc1cn(CCCNC(=O)c2ccc(-c3c4ccc(=[N+](C)C)cc-4oc4cc(N(C)C)ccc34)c(C(=O)[O-])c2)nn1)C1CCNCC1)C(=O)N[C@@H](CCCNC(=N)N)C(=O)N1CCC[C@H]1C(=O)N[C@@H](Cc1ccc(O)cc1)C(=O)N[C@H](C(=O)N[C@@H](CC(C)C)C(=O)O)[C@@H](C)CC [Compound 13, N^α-(3-(1-N-((1-Carboxylato-2-(6-(dimethylamino)-3-(dimethyliminio)-3H-xanthen-9-yl)phen-5-yl)1-oxomethyl)aminoprop-3-yl-1H-1,2,3-triazol-4-yl)propanoyl)-2-(piperidin-4-yl)-Gly-Pro-N^ω-[(4-(N-propanoyl)aminobutyl)aminocarbonyl]Arg-Arg-Pro-Tyr-Ile-Leu Tris(hydrotrifluoroacetate)] | 1.67e+07 | 0.0102 | – | 75% and 102% and 104% | –
